The supplement of paper PMC11208160

Experiment: recombinant barcode read abundance after kanamycin selection (control-corrected) (log10(CPM+1)); higher = more efficient recombination; sequences stand for … in AGTGCAGAGAAAATCGGCCAGTTTTCTCTGCCTGCAGTCCGCATGCCGT…AGATTTATGCAGCGGACTGCCTTTCTCCCAAAGTGATAAACCGGACAGTATCATGGACCGGTTTTCCCGGTAATCCGTATTTGCAAGGTTGGTTTCACT; site = the 11-nt target
How it was run: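 Each value is log10(CPM+1). It describes recombination efficiency, taken as averaged, control-corrected counts per million of barcodes at recombinant junctions. The pooled E. coli library paired targets with IS621 bridge RNA target-binding loops, was co-electroporated with a donor plasmid, and was plated twice on chloramphenicol/ampicillin LB agar (control) and twice on chloramphenicol/ampicillin/kanamycin containing 0.1 mM IPTG.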
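Note: IS621 recombinase and bridge RNA in Escherichia coli cells.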

Sequence | recombinant barcode read abundance (log10)
TGTGACTCTTGGGTTCTAACCTGTTGCCT (site TGGGACTCTAG) | 0.0547
TGTGACTCTTGGGTTCTAACCTGTTGCCT (site TGTGACTCTAG) | 0.912
TGTGAGCCTTGGGTTCTAACCTGTTGCGA (site CTGCGCTCTAT) | 0.0373
TGTGAGCCTTGGGTTCTAACCTGTTGCGA (site TGTGAGCCTTC) | 0.748
TGTGCACCTTGGGTTCTAACCTGTTGCAC (site TGTGCACCTGT) | 0.32
TGTGCACCTTGGGTTCTAACCTGTTGCAC (site TGTGCTCCTCT) | 0.0746
TGTGCGACTTGGGTTCTAACCTGTTGCAC (site TGAGCTACTGT) | 0.0835
TGTGCGACTTGGGTTCTAACCTGTTGCAC (site TGTGCGACTGT) | 0.0665
TGTGCGTCTTGGGTTCTAACCTGTTGCCT (site AGTGCGTCTAG) | 0.0921
TGTGCGTCTTGGGTTCTAACCTGTTGCCT (site CGTGCGTCTAG) | 0.136
TGTGCGTCTTGGGTTCTAACCTGTTGCCT (site GGTGCGTCTAG) | 0.0172
TGTGCGTCTTGGGTTCTAACCTGTTGCCT (site TGTGCGTCTAG) | 0.801
TGTGCTACTTGGGTTCTAACCTGTTGCAC (site GACCTATCTAG) | 0.327
TGTGCTACTTGGGTTCTAACCTGTTGCAC (site TGTGCTACTGT) | 0.0867
TGTGCTCCTTGGGTTCTAACCTGTTGCAG (site TGTGCACCTGT) | 0.294
TGTGCTCCTTGGGTTCTAACCTGTTGCAG (site TGTGCTCCTCT) | 0.113
TGTGTCTCTTGGGTTCTAACCTGTTGCGT (site TCTGTCTCTAG) | 0.363
TGTGTCTCTTGGGTTCTAACCTGTTGCGT (site TGTGTCTCTAC) | 2.63
TGTTGAGCTTGGGTTCTAACCTGTTGCCG (site TGTAGAGCTCG) | 0.09
TGTTGAGCTTGGGTTCTAACCTGTTGCCG (site TGTCGAGCTCG) | 0.192
TGTTGAGCTTGGGTTCTAACCTGTTGCCG (site TGTGGAGCTCG) | 0.258
TGTTGAGCTTGGGTTCTAACCTGTTGCCG (site TGTTGAGCTCG) | 0.554

Sequence | recombinant barcode read abundance (log10)
TGTTGTTCTTGGGTTCTAACCTGTTGCCT (site GGTTGTTCTAG) | 0.0142
TGTTGTTCTTGGGTTCTAACCTGTTGCCT (site TGTTGTTCTAG) | 0.0851
TGTTTAACTTGGGTTCTAACCTGTTGCCT (site TGGTTACCTAG) | 0.126
TGTTTAACTTGGGTTCTAACCTGTTGCCT (site TGTTTAACTAG) | 0.0368
TTAAAACCTTGGGTTCTAACCTGTTGCCT (site ATAAAACCTAG) | 0.0421
TTAAAACCTTGGGTTCTAACCTGTTGCCT (site CTAAAACCTAG) | 0.0966
TTAAAACCTTGGGTTCTAACCTGTTGCCT (site GTAAAACCTAG) | 0.06
TTAAAACCTTGGGTTCTAACCTGTTGCCT (site TTAAAACCTAG) | 0.751
TTAACTACTTGGGTTCTAACCTGTTGCTT (site TTAACTACTAA) | 0.0821
TTAACTACTTGGGTTCTAACCTGTTGCTT (site TTAACTACTCA) | 0.233
TTAACTACTTGGGTTCTAACCTGTTGCTT (site TTAACTACTGA) | 0.294
TTAACTACTTGGGTTCTAACCTGTTGCTT (site TTAACTACTTA) | 0.0225
TTAAGCCCTTGGGTTCTAACCTGTTGCCT (site TTAAGACCTAG) | 0.288
TTAAGCCCTTGGGTTCTAACCTGTTGCCT (site TTAAGCCCTAG) | 1.41
TTAAGCTCTTGGGTTCTAACCTGTTGCCT (site ATAAGCTCTAG) | 0.125
TTAAGCTCTTGGGTTCTAACCTGTTGCCT (site CTAAGCTCTAG) | 0.197
TTAAGCTCTTGGGTTCTAACCTGTTGCCT (site GTAAGCTCTAG) | 0
TTAAGCTCTTGGGTTCTAACCTGTTGCCT (site TTAAGCTCTAG) | 1.43
TTAAGTCCTTGGGTTCTAACCTGTTGCAT (site TTAAGTCCTAT) | 0.498
TTAAGTCCTTGGGTTCTAACCTGTTGCAT (site TTAGGTCCTAA) | 0.0454
TTACCCACTTGGGTTCTAACCTGTTGCCT (site TTACCAACTAG) | 0.0275
TTACCCACTTGGGTTCTAACCTGTTGCCT (site TTACCCACTAG) | 3.27

Sequence | recombinant barcode read abundance (log10)
TTACCCACTTGGGTTCTAACCTGTTGCCT (site TTACCGACTAG) | 0.0929
TTACCCACTTGGGTTCTAACCTGTTGCCT (site TTACCTACTAG) | 0.151
TTACGAGCTTGGGTTCTAACCTGTTGCGG (site TTACGAGCTCC) | 1.81
TTACGAGCTTGGGTTCTAACCTGTTGCGG (site TTACGCGCTCC) | 0.176
TTACGAGCTTGGGTTCTAACCTGTTGCGG (site TTACGGGCTCC) | 0.608
TTACGAGCTTGGGTTCTAACCTGTTGCGG (site TTACGTGCTCC) | 0.14
TTACGTACTTGGGTTCTAACCTGTTGCCT (site ATACGTACTAG) | 0.131
TTACGTACTTGGGTTCTAACCTGTTGCCT (site CTACGTACTAG) | 0.193
TTACGTACTTGGGTTCTAACCTGTTGCCT (site GTACGTACTAG) | 0.19
TTACGTACTTGGGTTCTAACCTGTTGCCT (site TTACGTACTAG) | 1.45
TTACGTGCTTGGGTTCTAACCTGTTGCGG (site TTACGAGCTCC) | 0.271
TTACGTGCTTGGGTTCTAACCTGTTGCGG (site TTACGCGCTCC) | 0.141
TTACGTGCTTGGGTTCTAACCTGTTGCGG (site TTACGGGCTCC) | 0.67
TTACGTGCTTGGGTTCTAACCTGTTGCGG (site TTACGTGCTCC) | 2.4
TTAGAGCCTTGGGTTCTAACCTGTTGCCT (site TTAGAGACTAG) | 0.0939
TTAGAGCCTTGGGTTCTAACCTGTTGCCT (site TTAGAGCCTAG) | 2
TTAGAGCCTTGGGTTCTAACCTGTTGCCT (site TTAGAGGCTAG) | 0.173
TTAGAGCCTTGGGTTCTAACCTGTTGCCT (site TTAGAGTCTAG) | 0.644
TTAGAGTCTTGGGTTCTAACCTGTTGCCT (site TTAGAGACTAG) | 0.103
TTAGAGTCTTGGGTTCTAACCTGTTGCCT (site TTAGAGCCTAG) | 0.925
TTAGAGTCTTGGGTTCTAACCTGTTGCCT (site TTAGAGGCTAG) | 0.126
TTAGAGTCTTGGGTTCTAACCTGTTGCCT (site TTAGAGTCTAG) | 2.08

Sequence | recombinant barcode read abundance (log10)
TTAGCCTCTTGGGTTCTAACCTGTTGCCT (site TTAGCATCTAG) | 0.168
TTAGCCTCTTGGGTTCTAACCTGTTGCCT (site TTAGCCTCTAG) | 2.66
TTAGCCTCTTGGGTTCTAACCTGTTGCCT (site TTAGCGTCTAG) | 0.137
TTAGCCTCTTGGGTTCTAACCTGTTGCCT (site TTAGCTTCTAG) | 0.00901
TTAGCGTCTTGGGTTCTAACCTGTTGCCT (site TTAGCATCTAG) | 1.47
TTAGCGTCTTGGGTTCTAACCTGTTGCCT (site TTAGCCTCTAG) | 0.0674
TTAGCGTCTTGGGTTCTAACCTGTTGCCT (site TTAGCGTCTAG) | 1.73
TTAGCGTCTTGGGTTCTAACCTGTTGCCT (site TTAGCTTCTAG) | 0.129
TTATACACTTGGGTTCTAACCTGTTGCTC (site GATAGGGCTAG) | 0.0179
TTATACACTTGGGTTCTAACCTGTTGCTC (site TTATACACTGA) | 0.919
TTATGATCTTGGGTTCTAACCTGTTGCCT (site TCATGAACTAG) | 0.0371
TTATGATCTTGGGTTCTAACCTGTTGCCT (site TTATGATCTAG) | 0.193
TTATGGGCTTGGGTTCTAACCTGTTGCCG (site TCCTGGGCTCG) | 0.114
TTATGGGCTTGGGTTCTAACCTGTTGCCG (site TTATGGGCTCG) | 0.88
TTCAAGACTTGGGTTCTAACCTGTTGCCT (site TTCAAGACTAG) | 0.681
TTCAAGACTTGGGTTCTAACCTGTTGCCT (site TTCAAGCCTAG) | 0.0955
TTCAAGACTTGGGTTCTAACCTGTTGCCT (site TTCAAGGCTAG) | 0
TTCAAGACTTGGGTTCTAACCTGTTGCCT (site TTCAAGTCTAG) | 0.241
TTCAAGCCTTGGGTTCTAACCTGTTGCGG (site TTCAAGCCTAC) | 0.222
TTCAAGCCTTGGGTTCTAACCTGTTGCGG (site TTCAAGCCTCC) | 1.15
